The values below come from US20090280130A1 (priority 2006, published 2009).

Values joined by “and” are separate entries in the source; they are usually repeats but may differ in a detail not shown here. Equal entries are not always repeated. “Also recorded” adds a separate entry of the source. A value given as a limit tells only on which side of the number the result lay.

Test [1] relates to zebrafish embryos. Type of test: in vivo. The note with it: n>30.
The subject of test [2] is zebrafish embryos. To be noted: in vivo.
Test [3] has as its system zebrafish embryos. To be noted: in vivo. The source holds these as a separate data set.
Test [4] deals with mouse skin microvasculature. Also noted: species or system C3H/HeJ mice. The note with it: in vivo.
Test [5] addresses VEGFR2 (Mus musculus, UniProt P35918). To be noted: cited from earlier work.
The test system of test [6] is zebrafish embryos. The test is classed as in vivo. To be noted: 5 μM for 6 hours.
Test [7] concerns zebrafish embryos. The note with it: in vivo. The source holds these as a separate data set.
Test [8] addresses T1, VEGFR2 (Homo sapiens, UniProt P35968). The note with it: cited from earlier work.
A further test concerns the target VEGFR1 (Homo sapiens, UniProt P17948). The note with it: cited from earlier work.
The target in test [9] is T1, VEGFR2. To be noted: cited from earlier work. The source holds these as a separate data set.

T1 sequence (P35968 20-1356): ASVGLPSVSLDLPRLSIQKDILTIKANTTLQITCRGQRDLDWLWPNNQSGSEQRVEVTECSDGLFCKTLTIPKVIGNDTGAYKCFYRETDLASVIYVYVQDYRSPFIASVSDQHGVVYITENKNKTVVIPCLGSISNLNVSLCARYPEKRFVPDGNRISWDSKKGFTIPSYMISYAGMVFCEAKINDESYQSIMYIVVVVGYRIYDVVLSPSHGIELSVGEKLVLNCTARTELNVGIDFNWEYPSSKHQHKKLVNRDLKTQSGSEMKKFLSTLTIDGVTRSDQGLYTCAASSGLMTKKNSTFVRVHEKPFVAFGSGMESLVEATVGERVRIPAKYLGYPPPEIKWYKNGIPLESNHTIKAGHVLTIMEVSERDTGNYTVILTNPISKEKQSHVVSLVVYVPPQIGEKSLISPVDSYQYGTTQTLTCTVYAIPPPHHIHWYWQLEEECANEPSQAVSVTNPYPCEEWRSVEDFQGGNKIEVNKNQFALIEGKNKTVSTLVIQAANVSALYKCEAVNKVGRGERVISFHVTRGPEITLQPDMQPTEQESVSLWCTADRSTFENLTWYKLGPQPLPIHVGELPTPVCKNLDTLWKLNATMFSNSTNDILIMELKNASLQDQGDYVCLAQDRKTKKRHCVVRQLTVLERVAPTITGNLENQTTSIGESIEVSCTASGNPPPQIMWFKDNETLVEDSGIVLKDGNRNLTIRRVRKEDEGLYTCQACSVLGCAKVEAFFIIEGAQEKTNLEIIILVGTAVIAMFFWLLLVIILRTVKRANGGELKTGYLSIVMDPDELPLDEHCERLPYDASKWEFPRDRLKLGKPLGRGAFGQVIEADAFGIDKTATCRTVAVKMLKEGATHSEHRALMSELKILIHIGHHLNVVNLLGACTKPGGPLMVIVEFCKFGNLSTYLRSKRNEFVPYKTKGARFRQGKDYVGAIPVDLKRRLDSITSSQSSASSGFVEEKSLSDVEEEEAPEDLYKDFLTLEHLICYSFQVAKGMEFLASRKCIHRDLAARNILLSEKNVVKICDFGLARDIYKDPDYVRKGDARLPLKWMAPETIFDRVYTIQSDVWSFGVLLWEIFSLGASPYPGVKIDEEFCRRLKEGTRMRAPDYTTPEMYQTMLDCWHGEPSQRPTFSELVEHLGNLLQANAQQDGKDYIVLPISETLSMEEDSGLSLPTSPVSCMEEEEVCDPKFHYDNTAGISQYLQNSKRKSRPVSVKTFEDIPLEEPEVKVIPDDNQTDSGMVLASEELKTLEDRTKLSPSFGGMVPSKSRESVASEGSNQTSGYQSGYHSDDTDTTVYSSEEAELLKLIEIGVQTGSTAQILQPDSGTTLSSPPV
Sequence of VEGFR2 (Mus musculus, UniProt P35918) (P35918 20-1345): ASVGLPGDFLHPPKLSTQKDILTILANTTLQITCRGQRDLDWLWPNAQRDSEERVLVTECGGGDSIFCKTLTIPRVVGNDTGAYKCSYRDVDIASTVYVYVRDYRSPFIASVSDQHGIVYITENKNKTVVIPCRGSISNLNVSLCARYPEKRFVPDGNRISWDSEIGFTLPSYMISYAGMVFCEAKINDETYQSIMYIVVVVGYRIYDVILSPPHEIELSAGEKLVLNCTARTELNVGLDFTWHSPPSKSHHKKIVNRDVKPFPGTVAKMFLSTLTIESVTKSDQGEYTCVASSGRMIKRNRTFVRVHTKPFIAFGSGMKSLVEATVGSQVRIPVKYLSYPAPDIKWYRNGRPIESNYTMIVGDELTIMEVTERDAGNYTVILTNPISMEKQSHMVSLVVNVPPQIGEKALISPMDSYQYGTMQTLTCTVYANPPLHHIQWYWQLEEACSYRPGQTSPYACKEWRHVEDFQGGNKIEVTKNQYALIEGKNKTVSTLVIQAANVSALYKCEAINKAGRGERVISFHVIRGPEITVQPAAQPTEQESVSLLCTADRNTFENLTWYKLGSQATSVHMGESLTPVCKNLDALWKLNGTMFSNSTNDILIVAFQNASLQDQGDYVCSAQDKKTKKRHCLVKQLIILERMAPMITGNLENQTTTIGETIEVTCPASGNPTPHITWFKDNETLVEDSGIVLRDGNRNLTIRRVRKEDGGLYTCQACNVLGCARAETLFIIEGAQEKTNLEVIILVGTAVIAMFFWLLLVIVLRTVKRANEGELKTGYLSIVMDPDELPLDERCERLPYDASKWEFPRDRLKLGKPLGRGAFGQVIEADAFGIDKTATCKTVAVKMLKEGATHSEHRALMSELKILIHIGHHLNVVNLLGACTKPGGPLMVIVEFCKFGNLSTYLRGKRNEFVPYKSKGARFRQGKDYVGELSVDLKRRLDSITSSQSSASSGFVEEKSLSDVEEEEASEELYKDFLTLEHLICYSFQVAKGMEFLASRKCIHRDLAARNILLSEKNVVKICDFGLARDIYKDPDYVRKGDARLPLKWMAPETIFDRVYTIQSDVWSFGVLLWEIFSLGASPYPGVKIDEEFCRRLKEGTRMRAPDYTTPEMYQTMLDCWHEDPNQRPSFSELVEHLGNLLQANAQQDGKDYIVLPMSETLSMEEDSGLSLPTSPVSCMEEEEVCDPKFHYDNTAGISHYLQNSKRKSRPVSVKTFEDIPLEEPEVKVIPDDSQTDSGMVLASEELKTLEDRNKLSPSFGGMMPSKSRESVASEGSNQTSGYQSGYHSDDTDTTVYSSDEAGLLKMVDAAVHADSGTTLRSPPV
Sequence of VEGFR1 (P17948 27-1338): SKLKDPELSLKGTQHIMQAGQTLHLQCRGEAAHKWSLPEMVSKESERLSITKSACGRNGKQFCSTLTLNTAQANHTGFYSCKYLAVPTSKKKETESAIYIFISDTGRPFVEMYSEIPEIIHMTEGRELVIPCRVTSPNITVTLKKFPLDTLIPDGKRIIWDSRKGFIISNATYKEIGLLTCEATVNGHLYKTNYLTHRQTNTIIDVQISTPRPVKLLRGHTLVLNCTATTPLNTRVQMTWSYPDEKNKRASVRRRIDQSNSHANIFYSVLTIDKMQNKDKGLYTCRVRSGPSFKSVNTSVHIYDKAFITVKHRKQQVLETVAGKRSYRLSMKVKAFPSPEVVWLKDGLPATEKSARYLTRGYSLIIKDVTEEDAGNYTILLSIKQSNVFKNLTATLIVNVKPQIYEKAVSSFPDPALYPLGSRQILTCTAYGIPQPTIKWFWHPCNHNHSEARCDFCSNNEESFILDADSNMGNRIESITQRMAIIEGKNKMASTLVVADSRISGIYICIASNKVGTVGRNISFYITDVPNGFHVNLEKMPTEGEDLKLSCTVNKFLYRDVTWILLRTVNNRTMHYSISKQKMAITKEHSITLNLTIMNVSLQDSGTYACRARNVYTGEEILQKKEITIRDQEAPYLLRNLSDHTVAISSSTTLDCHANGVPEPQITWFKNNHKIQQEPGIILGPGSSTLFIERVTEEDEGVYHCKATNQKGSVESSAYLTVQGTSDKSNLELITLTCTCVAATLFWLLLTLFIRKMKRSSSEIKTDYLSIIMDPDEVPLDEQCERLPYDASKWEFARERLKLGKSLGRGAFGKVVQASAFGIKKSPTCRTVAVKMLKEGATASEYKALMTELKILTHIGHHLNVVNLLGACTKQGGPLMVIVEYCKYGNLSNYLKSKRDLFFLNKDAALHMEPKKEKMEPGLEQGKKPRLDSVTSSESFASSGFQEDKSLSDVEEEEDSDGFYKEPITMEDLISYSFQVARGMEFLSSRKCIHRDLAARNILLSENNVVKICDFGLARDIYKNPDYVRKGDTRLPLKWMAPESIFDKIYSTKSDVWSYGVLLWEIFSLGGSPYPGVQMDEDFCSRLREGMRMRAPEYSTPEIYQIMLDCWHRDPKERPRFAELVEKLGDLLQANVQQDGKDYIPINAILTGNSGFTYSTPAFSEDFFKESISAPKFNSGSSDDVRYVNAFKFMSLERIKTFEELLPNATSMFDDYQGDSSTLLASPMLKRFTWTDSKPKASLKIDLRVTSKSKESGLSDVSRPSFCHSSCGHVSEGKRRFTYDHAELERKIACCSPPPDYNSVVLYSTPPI

With `O=C(NOCC1CC1)c1ccc(F)c(F)c1Nc1ccc(I)cc1Cl` [CI-1040], the “embryos in which LeTx effects were phenocopied” value in the test on zebrafish embryos [1] is listed as 100%.
As to `CCN(CC)CCNC(=O)c1c(C)[nH]c(/C=C2\C(=O)Nc3ccc(Cl)cc32)c1C` [SU11652], in the test with zebrafish embryos [2], the “% With Toxin Phen (Mild and Severe)” value is 80% and 100%; the “Mild Phen” value is 7 and 9 and 8; the “Protection against LeTx effects (in words)” value is “able to protect against LeTx effects”; the “Severe Toxin Phen” value was 9 and 11 and 12. Also, in the test on zebrafish embryos [3], the “Mild Toxin Phenotype” value is recorded as 11, the “Protection against LeTx effects / phenotypes (in words)” value is “demonstrated protection against LeTx effects”, the “Severe Toxin Phenotype” value was 10 and the “Wildtype Appearance” value was determined as 1. The “LeTx induced vascular leakage, Evans Blue Dye (in words)” value in test [4] is given as “attenuated LeTx induced vascular leakage significantly”. Further, the “Blocking of VEGFR2 activity in vivo (in words)” value at VEGFR2 [5] was “used successfully to block VEGFR2 activity”.
As to `Cn1cc(C=C2C(=O)Nc3ccc(S(N)(=O)=O)cc32)c2ccccc21` [Syk Inhibitor, 3-(1-Methyl-1H-indol-3-yl-methylene)-2-oxo-2,3-dihydro-1H-indol-5-sulfonamide], in the test on zebrafish embryos [3], the “Mild Toxin Phenotype” value worked out at 7, the “Severe Toxin Phenotype” value is given as 14 and the “Wildtype Appearance” value is given as 1.
As to `C[C@@H](N)[C@H]1CC[C@H](C(=O)Nc2ccncc2)CC1` [Y-27632], in the test on zebrafish embryos [3], the “Mild Toxin Phenotype” value is recorded as 6, the “Severe Toxin Phenotype” value amounted to 13 and the “Wildtype Appearance” value is reported as 1.
With `C[C@@H]1C[C@@H]([C@H](O)CC2CC(=O)NC(=O)C2)C(=O)[C@@H](C)C1` [cycloheximide], the “Phenocopy of endothelial cell fragmentation in the intersegmental vessels (in words)” value with zebrafish embryos [6] is listed as “phenocopied”.
AG-1296: in the test on zebrafish embryos [3], the “Mild Toxin Phenotype” value is reported as 3, the “Severe Toxin Phenotype” value came out at 15 and the “Wildtype Appearance” value was 2.
By IC50 is commonly meant the midpoint of a concentration-inhibition curve. On to ZM323881, for which, in the test on zebrafish embryos [7], the “Mild Toxin Phen” value is 12 and 8 and 9 and 13; the “Proportion of embryos displaying LeTx phenotypes (in words)” value is given as “reduction in the proportion of embryos displaying LeTx phenotypes is seen in 3 concentrations of the inhibitor”; the “Severe forms of the LeTx phenotype (in words)” value is recorded as “dramatic reduction in the severe forms of the LeTx phenotype that occurred in all concentrations used”. The “Attenuation of toxin effects (in words)” value in the test with zebrafish embryos [2] is given as “able to attenuate the toxin effects”. In addition, in the test with zebrafish embryos [3], the “Mild Toxin Phenotype” value is given as 10, the “Protection against LeTx effects / phenotypes (in words)” value is “provided the best protection against the development of LeTx phenotypes; also recorded: demonstrated protection against LeTx effects”, the “Severe Toxin Phenotype” value was determined as 8 and the “Wildtype Appearance” value is on record as 4. In addition, in [4], the “LeTx induced vascular leakage, Evans Blue Dye (in words)” value is “attenuated LeTx induced vascular leakage significantly”. In addition, the IC50 at VEGFR2 [8] was less than 0.002 µM. Further, the IC50 on VEGFR1 was greater than 50 µM. Also, the “VEGFR2 activation (in words)” value on VEGFR2 [9] is “inhibit VEGFR2 activation”.
Turning to ZM449829, in the test with zebrafish embryos [3], the “Mild Toxin Phenotype” value came to 5, the “Severe Toxin Phenotype” value is given as 15 and the “Wildtype Appearance” value is 1.
